Experiments:
[1] = target: T1, Met kinase (Homo sapiens, UniProt P08581); assay: Met kinase inhibition, flashplate method (enzyme); assay type: biochemical; set-up: 6His (N); purchased Upstate 14-526; host or cells: Sf21 insect cells (S. frugiperda), baculovirus
Method: The test plates used are 96-well Flashplate® microtitre plates from Perkin Elmer (Cat. No SMP200). The components of the kinase reaction described below are pipetted into the assay plate. The Met kinase and the substrate poly Ala-Glu-Lys-Tyr, (pAGLT, 6:2:5:1), are incubated for 3 hrs at room temperature with radioactively labelled ^33P-ATP in the presence and absence of test substances in a total volume of […]. The reaction is terminated using 150 μl of a 60 mM EDTA solution. After incubation for a further 30 min at room temperature, the supernatants are filtered off with suction, and the wells are washed three times with 200 μl of 0.9% NaCl solution each time. The measurement of the bound radioactivity is carried out by means of a scintillation measuring instrument (Topcount NXT, Perkin-Elmer).
The full value used is the inhibitor-free kinase reaction. This should be approximately in the range 6000-9000 cpm. The pharmacological zero value used is staurosporin in a final concentration of 0.1 mM. The inhibitory values (IC50) are determined using the RS1_MTS program.
30 μl of assay buffer 10 μl of substance to be tested in assay buffer with 10% of DMSO 10 μl of ATP (final concentration 1 μM cold, 0.35 μCi of ^33P-ATP) 50 μl of Met kinase/substrate mixture in assay buffer; • (10 ng of enzyme/well, 50 ng of pAGLT/well)

[2] = target: T1, Met kinase; assay: Met kinase inhibition (cell); assay type: cell-based

T1 sequence (P08581 25-1390): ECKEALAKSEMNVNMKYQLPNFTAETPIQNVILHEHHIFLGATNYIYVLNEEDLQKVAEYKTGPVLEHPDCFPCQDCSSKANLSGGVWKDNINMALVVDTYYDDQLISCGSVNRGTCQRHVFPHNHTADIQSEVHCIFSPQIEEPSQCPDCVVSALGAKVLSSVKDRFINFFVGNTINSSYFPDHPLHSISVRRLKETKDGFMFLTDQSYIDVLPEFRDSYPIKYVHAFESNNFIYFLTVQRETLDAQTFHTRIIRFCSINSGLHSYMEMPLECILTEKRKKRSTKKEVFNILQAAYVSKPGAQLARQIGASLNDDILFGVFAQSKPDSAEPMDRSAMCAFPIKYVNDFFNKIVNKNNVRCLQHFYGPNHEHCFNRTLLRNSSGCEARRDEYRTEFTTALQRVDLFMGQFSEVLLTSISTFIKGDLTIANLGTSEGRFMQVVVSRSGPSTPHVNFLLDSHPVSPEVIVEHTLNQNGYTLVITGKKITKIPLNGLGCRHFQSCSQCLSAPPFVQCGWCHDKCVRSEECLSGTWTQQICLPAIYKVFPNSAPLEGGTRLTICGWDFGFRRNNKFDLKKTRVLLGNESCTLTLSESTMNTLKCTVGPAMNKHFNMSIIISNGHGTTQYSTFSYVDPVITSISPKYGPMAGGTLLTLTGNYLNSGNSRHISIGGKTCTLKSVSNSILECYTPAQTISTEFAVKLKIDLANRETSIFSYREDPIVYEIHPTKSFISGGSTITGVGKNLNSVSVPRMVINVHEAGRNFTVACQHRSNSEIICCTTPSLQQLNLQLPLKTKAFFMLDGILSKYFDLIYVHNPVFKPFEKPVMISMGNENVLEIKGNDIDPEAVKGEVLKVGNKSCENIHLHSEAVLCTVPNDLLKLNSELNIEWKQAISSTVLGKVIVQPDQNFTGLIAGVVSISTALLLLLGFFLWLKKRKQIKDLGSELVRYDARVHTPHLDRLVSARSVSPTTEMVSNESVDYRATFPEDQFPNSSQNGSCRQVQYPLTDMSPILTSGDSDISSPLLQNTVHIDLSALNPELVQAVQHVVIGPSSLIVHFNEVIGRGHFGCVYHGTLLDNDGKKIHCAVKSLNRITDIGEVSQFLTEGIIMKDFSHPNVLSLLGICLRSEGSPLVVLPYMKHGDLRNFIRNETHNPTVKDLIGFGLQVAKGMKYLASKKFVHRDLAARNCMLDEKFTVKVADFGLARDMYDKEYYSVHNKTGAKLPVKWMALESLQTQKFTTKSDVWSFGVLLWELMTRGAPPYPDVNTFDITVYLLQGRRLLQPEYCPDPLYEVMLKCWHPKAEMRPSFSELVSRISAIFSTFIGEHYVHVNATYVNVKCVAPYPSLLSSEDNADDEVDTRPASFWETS

| SMILES | melting point | IC50 [1] | IC50 [2] |
| --- | --- | --- | --- |
| N#Cc1ccc2[nH]c(-c3cncnc3)c(-c3ccc(F)cc3)c2n1 [Compound A14, 3-(4-fluorophenyl)-2-(pyrimidin-5-yl)-1H-pyrrolo[3,2-b]pyridine-5-carbonitrile] | 230 to 232 °C | – | – |
| N#Cc1ccc2[nH]c(-c3ccncc3)c(-c3ccc(F)cc3)c2n1 | 230 °C | – | – |
| O=C(NCCN1CCOCC1)c1ccc2[nH]c(-c3ccncc3)c(-c3cccc(Cl)c3)c2n1 [Compound A61] | – | > 10 µM | > 10 µM |
| N#Cc1ccc2[nH]c(-c3cncnc3)c(-c3cccc(Cl)c3)c2n1 [Compound A62, 3-(3-Chlorophenyl)-2-pyrimidin-5-yl-1H-pyrrolo[3,2-b]pyridine-5-carbonitrile] | – | > 10 µM | – |

Results, then the compound that gave them:

| melting point | IC50 [1] | IC50 [2] | SMILES |
| --- | --- | --- | --- |
| – | > 10 µM | – | N#Cc1ccc2[nH]c(-c3ccc(F)cc3)c(-c3ccncc3)c2n1 [Compound A20] |
| – | 0.1 to 10 µM | > 10 µM | NC(=O)c1ccc2[nH]c(-c3ccncc3)c(-c3cccc(Cl)c3)c2n1 [Compound A60] |
| – | 0.1 to 10 µM | > 10 µM | O=C(O)c1ccc2[nH]c(-c3ccncc3)c(-c3cccc(Cl)c3)c2n1 [Compound A59] |
| – | 0.1 to 10 µM | > 10 µM | N#Cc1ccc2[nH]c(-c3ccncc3)c(-c3cccc(F)c3)c2n1 [Compound A58] |
